From patent publication US6737240B1, “Methods of screening for a multi-drug resistance conferring peptide” (Rigel Pharmaceuticals, Inc., priority 1999, dated 2004) come the findings set out here.

For experiment [1], the system named is cyclin B. Briefly: Western blot of endogenous protein levels in RGP8.5 HeLa clone. The format is cell-based. As to conditions: RGP8.5 expressing cells compared with GFP negative cells. On the procedure:
FIG. 6 depicts that inhibition of proteasome activity by RGP8.5 arrests cell cycle progression. […] To examine the effect of RGP8.5 on the endogenous protein expression, RGP8.5 expressing HeLa cells were incubated with doxycycline (200 ng/ml) for 4 days before harvesting for western analysis. Equal amount of cell lysate were loaded on each lane, separated by SDS-PAGE and immunoblotted with antiserum against GFP (Kodak), hsp70 and cyclin B1 (Santa Cruz).
(§1) Transfection, immunoprecipitation and western blot. A calcium phosphate transfection method was used for all transfections of test constructs into 293T cells. Cells were lysed in […] of TNT buffer (20 mM Tris-HCl pH7.5, 200 mM NaCl and 1% Triton-X100), supplemented with 1 mM DTT and protease cocktail (Boehringer Mannheim). The cell extracts were incubated with […] anti-flag antibody conjugated beads (Babco) at 4° C. The beads were spun down and washed with […] TNT buffer for four times. For immunoprecipitation with biotinylated RG8.5 peptide, 3 10^6 Hela cells were lysed in a buffer containing 20 mM HEPES pH7.4, 150 mM NaCl and 1% NP40 and precleaned with a Streptavidin column (Pierce, Rockford, Ill.) to reduce non-specific binding. 3 ml of biotinylated RG8.5 peptide (1 mg/ml) in DMSO was added to the cell lysate and allowed to mix overnight at 4 ° C. […]

For experiment [2], the target named is T1, XAPC7 (Homo sapiens, UniProt O14818).
T1 construct: endogenous in cells; host or cells: HeLa cell extract
Description: Biotinylated RGP8.5 peptide affinity purification from HeLa cell extract. In kind it is binding. As to conditions: streptavidin beads. On the procedure:
(§2) HeLa cell extract were pre-cleared with a streptavidin column. The biotinylated RG8.5 peptide was then added to the cell lysate and allowed to mix overnight at 4° C. Next day streptavidin agarose beads were incubated with the cell extract for 3 hours at 4° C. After washing the beads five times with lysis buffer, the associated proteins were eluted with 2× protein sample buffer, resolved on SDS-PAGE and detected with monoclonal antibody against Zeta and XAPC7 proteasome subunits.
as §1

Experiment [3] concerns the target T2, Zeta (Homo sapiens, UniProt P28066).
T2 construct: endogenous in cells; host or cells: HeLa cell extract
Described as above. In kind it is binding. As to conditions: streptavidin beads. On the procedure:
as §2, §1

Experiment [4] has as its system LRP. Description: LRP expression in Taxol-resistant clone. In kind it is cell-based. The conditions noted are these: Taxol-resistant RGP8.5 clone; data not shown.
For experiment [5], the system named is HeLa cells. Description: Clonogenic survival assay in naive HeLa cells. In kind it is cell-based. The conditions noted are these: Taxol for 48 hours, colonies after two weeks; absence of Dox (peptide on) vs presence of Dox (peptide off). As for the experimental part: HeLa cells were infected with a tet-regulatory retroviral vector (Tra) expressing the RGP8.5 peptide or GFP control. After infection, 2×10^5 cells were split into one well of 6-well plate and half of cells were incubated with Dox. The next day the cells were treated with different dosages of Taxol for 48 hours. Two weeks later, the surviving colonies were stained with Giemsa solution and photographed. The cells with Dox were kept in Dox throughout the experiment. This assay has been repeated with the RGP8.5 peptide several times.
RT-PCR for peptide rescue and MDR1 mRNA level assay. Peptide sequences were rescued by RT-PCR from Taxol-resistant cells and later cloned into a Tra vector (in which the peptide expression was under tetracycline control). Each peptide was re-tested in naive Hela cells by a clonogenic survival assay. For semi-quantitative PCR to measure MDR-1 mRNA level, RiboGreen RNA quantification kit (Molecular Probes) and […] of total RNA were used for reverse transcription. Oligonucleotides for amplification of MDR-1 mRNA were described previously (Chen, G. et al., (1997) J. Biol. Chem., 272, 5974-5982).
Clonogenic survival assay. Viruses carrying the rescued peptides were used to infect Hela cells as described above. After infection, 2×10^5 cells were seeded into single well of 6-well plate w/o Doxycycline (200 ng/ml) in the medium. […]

In experiment [6] the test system is HeLa cells. Briefly: Taxol challenge of RGP8.5 expressing HeLa clone, visualized for cell survival. In kind it is cell-based. The conditions noted are these: 100 nM Taxol for 48 hours, absence of Doxycycline (peptide expression on). On the procedure: Subsequently, the cells were incubated with 100 nM Taxol for 48 hours and then visualized for cell survival.
We tested to determine whether survival to Taxol challenge correlated with induction of the peptide expression using Dox induction.

Experiment [7] deals with T3, proteasome alpha type subunit XAPC7 (Homo sapiens, UniProt O14818).
T3 construct: expressed in transfected cells; host or cells: yeast (two-hybrid transformants)
T3 sequence (O14818 1-248): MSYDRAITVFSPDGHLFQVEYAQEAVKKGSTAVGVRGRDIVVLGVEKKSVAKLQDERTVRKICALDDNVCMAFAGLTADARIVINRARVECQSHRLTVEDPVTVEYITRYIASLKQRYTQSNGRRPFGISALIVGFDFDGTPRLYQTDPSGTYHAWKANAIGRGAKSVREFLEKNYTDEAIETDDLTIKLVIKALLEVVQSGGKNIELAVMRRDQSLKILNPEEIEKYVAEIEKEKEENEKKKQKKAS
Briefly: Yeast two-hybrid screening with RGP8.5 bait. In kind it is binding. As to conditions: of 26 positive clones from 20 million transformants. From the text: (§3) Yeast two-hybrid screening. The bait used for two-hybrid screening was RGP8.5 fused to the Gal4 DNA binding domain containing a three glycine linker/spacer. A cDNA library made from a combination of multiple human tissues (brain, lymphocyte, stomach, pancreas, liver, intestine) was used for the screening. 20 million transformants were screened. 27 His^+/LacZ^+ colonies were retrieved for further analysis.

Experiment [8] has as its target T4, proteasome alpha type subunit Zeta (Homo sapiens, UniProt P28066).
T4 construct: expressed in transfected cells; host or cells: yeast (two-hybrid transformants)
T4 sequence (P28066 1-241): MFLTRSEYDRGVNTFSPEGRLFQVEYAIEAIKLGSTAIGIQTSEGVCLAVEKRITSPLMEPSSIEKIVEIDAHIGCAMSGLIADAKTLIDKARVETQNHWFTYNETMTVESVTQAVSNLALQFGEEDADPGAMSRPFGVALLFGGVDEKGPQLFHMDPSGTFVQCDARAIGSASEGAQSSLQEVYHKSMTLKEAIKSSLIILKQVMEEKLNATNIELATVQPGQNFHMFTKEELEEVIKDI
Description: Yeast two-hybrid screening with RGP8.5 bait. In kind it is binding. As to conditions: of 26 positive clones from 20 million transformants.
Source text: as §3

Take “MGEFLIVKVVWGRMVCWV-LVVRRFVLVIVLENSLSSNQGPP [RGP8.5]”: the “endogenous cyclin B protein level” value in experiment [1] was “slightly elevated levels”. In addition, the “binding of endogenous XAPC7 subunit” value in experiment [2] was “shown to bind”. The “binding of endogenous Zeta subunit” value in experiment [3] was “shown to bind”. In addition, the “expression of LRP” value in experiment [4] is “undetectable”. Besides, in experiment [5], the “survival of HeLa cells in clonogenic survival assay” value is “enhanced survival”. For the same substance, the “resistance to Taxol treatment” value in experiment [6] is “strong resistance”. For the same substance, the “positive yeast two-hybrid clones encoding XAPC7” value in experiment [7] turned out to be 25. For the same substance, the “positive yeast two-hybrid clones encoding Zeta” value in experiment [8] was 1.
